Drawing on patent US8193186B2, “Pyridopyrazines and the use thereof as kinase inhibitors” (AEterna Zentaris GmbH, priority 2003, dated 2012), this text covers IC50 and melting point for 19 molecules.

Molecules are shown by their SMILES. Counter-ions that a name gives are not always drawn.

One series has as its system c-Raf-Mek-Erk cascade. The series is described as follows: c-Raf-Mek-Erk ELISA (cell-free reconstituted kinase cascade, Erk phosphorylation). Type of series: biochemical, human. The settings on record: inhibition of Erk phosphorylation, 1 mM ATP, 10 concentrations 31.6 pM-100 μM, read-out: IC50. On the procedure: The inhibitory effect on the following human serine/threonine and tyrosine kinases of the compounds of the invention was tested in conventional kinase assays: PKB/Akt1, c-Raf-Mek-Erk, B-Raf-Mek-Erk, Mek-Erk, MAPKs, PDGFRbeta, Flt-3, c-Kit, c-Abl, KDR, FGFR1 and IGF1R. Both the full-length kinases and truncated fragments—but at least the cytoplasmic kinase domains—were employed. The kinases were prepared as recombinant fusion proteins with GST (glutathion S-transferase) or HIS Tag in Sf9 cell culture. Depending on the substrate type, the various kinase reactions were carried out in sandwich ELISA formates or by means of a simple substrate adsorption assay on 96-well Flashplates (Perkin Elmer).
The testing on substances on the c-Raf-Mek-Erk cascade is described in detail below. Selected test results for the c-Raf-Mek-Erk assays are then listed.
Procedure: c-Raf-Mek-Erk ELISA
Potential inhibitors were firstly investigated at a concentration of 20 μg/ml in initial single-dose determinations on 96-well microtiter plates (MTPs). Substances with >70% inhibition were employed for dose-response studies.
Reconstitution of the c-Raf-Mek-Erk cascade was quantified with the aid of a cell-free ELISA.
A typical kinase assay was carried out in a final volume of 50 μl with in each case 20-150 ng of Raf, Mek, Erk protein, 1 mM ATP, 10 mM MgCl2, 150 mM NaCl, 25 mM beta-glycerophosphate, 25 mM Hepes pH 7.5. Before the kinase reaction, the test substances were each preincubated singly with each of the three kinase proteins at room temperature for 30 minutes. For the kinase reaction, the kinases preincubated with test substance were combined and incubated at 26° C. for 30 minutes. The reaction was stopped by a final concentration of 2% SDS and 10 minutes at 50° C. in a heating block.
For the immunodetection, the reaction mixtures were transferred to 96-well MTPs coated with anti-Erk Ab(K-23, Santa Cruz Biotechnology, incubated at room temperature for 60 minutes and washed 3× with TBST. Anti-phospho-Erk Ab (#9106, New England Biolabs) 1:500 in 50 μl of TBST/1% BSA, was added and incubated at 4° C. overnight. After the MTPs had been washed 3× with TBST, secondary anti-mouse IgG^POD conjugate (#NA931, Pharmacia) 1:2500 was added, incubated at room temperature for 1 h and again washed 3× with TBST. For colorimetric detection of the kinase reaction, 50 μl of OPD (o-phenyldiamine dihydrochloride) chromogen buffer were pipetted into each of the wells and incubated at 37° C. for 30 minutes. The colour reaction was then determined in an ELISA reader at 492 nm.
The experimental determination of dose-response plots took place using the same experimental design with 10 semilogarithmically graded concentrations from 31.6 pM-100 μM. The IC50 values were calculated in GraphPadPrism.
As for `O=C(Nc1ccc(Cl)c(C(F)(F)F)c1)Nc1ccc2ncc(-c3ccccc3)nc2n1` [Example 34, 1-(4-Chloro-3-trifluoromethylphenyl)-3-(3-phenylpyrido[2,3-b]pyrazin-6-yl)urea], the IC50 was above 100 µM.
As for `C=C(C)CNC(=S)Nc1ccc2ncc(-c3ccccc3)nc2n1` [Example 5, 1-(2-Methylallyl)-3-(3-phenylpyrido[2,3-b]pyrazin-6-yl)thiourea], the half-inhibitory concentration (IC50) was around 1 µM.
Consider `CC(C)(C)NC(=S)Nc1ccc2ncc(-c3ccccc3)nc2n1` [Example 10, 1-tert-Butyl-3-(3-phenylpyrido[2,3-b]pyrazin-6-yl)thiourea], for which the IC50 was above 100 µM.
As for `COc1ccc(-c2cnc3ccc(NC(=S)Nc4ccc([N+](=O)[O-])cc4)nc3n2)cc1` [Example 9, 1-[3-(4-Methoxyphenyl)pyrido[2,3-b]pyrazin-6-yl]-3-(4-nitrophenyl)thiourea], the IC50 is above 100 µM.
On to `O=[N+]([O-])c1ccc(NC(=S)Nc2ccc3ncc(-c4ccc5ccccc5c4)nc3n2)cc1` [Example 8, 1-(3-Naphthalen-2-ylpyrido[2,3-b]pyrazin-6-yl)-3-(4-nitrophenyl)thiourea], for which the IC50 was above 100 µM.
On the same count and under the same terms, next, `C=CCNC(=S)Nc1ccc2ncc(-c3ccc(OC)cc3)nc2n1` [Example 3, 1-Allyl-3-[3-(4-methoxyphenyl)pyrido[2,3-b]pyrazin-6-yl]thiourea]: around 1 µM; `Cc1ccc(NC(=O)Nc2ccc3ncc(-c4ccccc4)nc3n2)cc1` [Example 33, 1-(3-Phenylpyrido[2,3-b]pyrazin-6-yl)-3-p-tolylurea]: above 100 µM.
Same read-out and setting: in the case of `C=CCNC(=S)Nc1ccc2ncc(-c3ccccc3)nc2n1` [Example 1, 1-allyl-3-(3-phenylpyrido[2,3-b]pyrazin-6-yl)thiourea] it was around 1 µM.
Same read-out and setting: next, `C=C(C)CNC(=S)Nc1ccc2ncc(-c3ccc(OC)cc3)nc2n1` [Example 7, 1-[3-(4-Methoxyphenyl)pyrido[2,3-b]pyrazin-6-yl]-3-(2-methylallyl)thiourea]: 43 µM; `C=CCNC(=S)Nc1ccc2ncc(-c3ccc4ccccc4c3)nc2n1` [Example 2, 1-Allyl-3-(3-naphthalen-2-ylpyrido[2,3-b]pyrazin-6-yl)thiourea]: 16 µM; `C=C(C)CNC(=S)Nc1ccc2ncc(-c3ccc4ccccc4c3)nc2n1` [Example 6, 1-(2-Methylallyl)-3-(3-naphthalen-2-ylpyrido[2,3-b]pyrazin-6-yl)thiourea]: around 100 µM.
For the molecule `O=C(NCCN1CCOCC1)Nc1ccc2ncc(-c3ccccc3)nc2n1` [Example 35, 1-(2-Morpholin-4-ylethyl)-3-(3-phenylpyrido[2,3-b]pyrazin-6-yl)urea], the IC50 amounted to 15 µM.
Still for that read-out and setting: next, `S=C(Nc1ccc2ncc(-c3ccccc3)nc2n1)NC1CC1` [Example 11, 1-Cyclopropyl-3-(3-phenylpyrido[2,3-b]pyrazin-6-yl)thiourea]: 0.9 µM.
For `S=C(NCc1ccccc1)Nc1ccc2ncc(-c3ccccc3)nc2n1` [Example 13, 1-Benzyl-3-(3-phenylpyrido[2,3-b]pyrazin-6-yl)thiourea], the IC50 was above 100 µM.
As to `Fc1ccc(NC(=S)Nc2ccc3ncc(-c4ccccc4)nc3n2)cc1` [Example 14, 1-(4-Fluorophenyl)-3-(3-phenylpyrido[2,3-b]pyrazin-6-yl)thiourea], the IC50 is around 50 µM.

Staying with this series, now noted: read-out: IC50 values, inhibition of Erk phosphorylation.
Take `CNC(=S)Nc1ccc2ncc(-c3ccccc3)nc2n1` [Example 12, 1-Methyl-3-(3-phenylpyrido[2,3-b]pyrazin-6-yl)thiourea]: the IC50 was 0.4 µM.
The same measure, in the same setting: in the case of `C=CCNC(=S)Nc1ccc2ncc(-c3ccc(O)cc3)nc2n1` [Example 4, 1-Allyl-3-[3-(4-hydroxyphenyl)pyrido[2,3-b]pyrazin-6-yl]thiourea hydrochloride] it was 0.4 µM.

Test system in a further series: not given
Experiment: not given
Details: not given
As for `CC=CNC(=S)Nc1ccc2nc(-c3ccc(O)cc3)c(-c3ccc(O)cc3)nc2n1` [Example 28, 1-[2,3-Bis(4-hydroxyphenyl)pyrido[2,3-b]pyrazin-6-yl]-3-(propenyl)thiourea], the melting point was 240 °C (dec.).
Still for that read-out and setting: in the case of `C#CCNC(=S)Nc1ccc2ncc(-c3ccc(O)cc3)nc2n1` [Example 24, 1-[3-(4-Hydroxyphenyl)pyrido[2,3-b]pyrazin-6-yl]-3-prop-2-ynylthiourea] it was 350 °C (dec.).
